These results are taken from ChEMBL document CHEMBL3085704, “Methyl-thiazoles: a novel mode of inhibition with the potential to develop novel inhibitors targeting InhA in Mycobacterium tuberculosis” (J Med Chem, 2013).

What is called MIC is the lowest concentration that inhibits growth of the organism.

Assay type in all cases: functional
Experiment [1] concerns Mycobacterium tuberculosis. As to the kind of experiment: Antitubercular activity against Mycobacterium tuberculosis H37Rv expressing inhA M103I mutant assessed as parasite growth inhibition after 7 days by Alamar Blue assay.
The test system of experiment [2] is Mycobacterium tuberculosis. As to the kind of experiment: Antitubercular activity against Mycobacterium tuberculosis H37Rv expressing inhA G96V mutant assessed as parasite growth inhibition after 7 days by Alamar Blue assay. For orientation: Alamar Blue is a resazurin reagent that responds to reducing activity.
For experiment [3], the system named is Mycobacterium tuberculosis. As to the kind of experiment: Antitubercular activity against Mycobacterium tuberculosis H37Rv expressing inhA M103L mutant assessed as parasite growth inhibition after 7 days by Alamar Blue assay.

Some results are limits rather than exact numbers.

Regarding `Cc1csc([C@](C)(O)c2nnc(Nc3ccn(Cc4c(F)cccc4F)n3)s2)n1`, the MIC in experiment [1], in experiment [2] and in experiment [3] was >25 µM each time.
Regarding `NNC(=O)c1ccncc1` [ISONIAZID], the MIC in experiment [1] is 0.06 µg/mL; in experiment [2] it was 0.06 µg/mL; in experiment [3], 0.03 µg/mL.
Consider `CO[C@H]1/C=C/O[C@@]2(C)Oc3c(C)c(O)c4c(O)c(c(/C=N/N5CCN(C)CC5)c(O)c4c3C2=O)NC(=O)/C(C)=C\C=C\[C@H](C)[C@H](O)[C@@H](C)[C@@H](O)[C@@H](C)[C@H](OC(C)=O)[C@@H]1C` [RIFAMPIN], for which the values for the minimum inhibitory concentration (MIC) in experiment [1], in experiment [2] and in experiment [3] were 0.007 µg/mL, 0.01 µg/mL and 0.007 µg/mL, respectively.
Consider `COc1c(N2C[C@@H]3CCCN[C@@H]3C2)c(F)cc2c(=O)c(C(=O)O)cn(C3CC3)c12` [MOXIFLOXACIN], for which the minimum inhibitory concentration (MIC) in experiment [1], in experiment [2] and in experiment [3] was 0.12 µg/mL each time.
As to `Cc1csc(C(C)(O)c2nnc(Nc3ncn(Cc4c(F)cccc4F)n3)s2)n1` (racemic), the minimal inhibitory concentration (MIC) in experiment [1], in experiment [2] and in experiment [3] was >25 µM throughout.
